Reference: patent US20240398757A1 (COCRYSTAL PHARMA, INC., priority 2022, published 2024)

Molecular target: T1, SARS2 protease (Severe acute respiratory syndrome coronavirus 2, UniProt P0DTD1)
T1 construct: SARS2 protease was added to a final concentration of 30 nM
Assay: SARS-CoV-2 protease inhibition assay (SARS2 FRET protease assay)
Type: biochemical
Details: IC50 (μM), SARS2 protease 30 nM, peptide substrate 1.3 μM, 120 minutes at 37° C., compounds 20 μM to 0.075 nM

Question: `CCCC[C@H](NC(=O)OC(c1ccccc1)C(F)(F)c1cccc(Cl)c1)C(=O)NC(C)(C=O)CC1CCNC1=O` (stereo partly shown) [Compound A192] was tested. Which IC50 did it give?
Answer: The IC50 was 0.978 µM.

Question: For `CC(C)C[C@H](NC(=O)O[C@@H](c1ccccc1)C(F)(F)c1cccc(C(C)C)c1)C(=O)N[C@@H](C[C@@H]1CCNC1=O)C(=O)C(=O)NC1CC1` [Compound A193], which IC50 is on record?
Answer: The IC50 was 0.135 µM.

Question: Which IC50 does the source give for `CC(C)C[C@H](NC(=O)O[C@H](c1ccccc1)C(F)(F)c1cccc(C(C)C)c1)C(=O)N[C@@H](C[C@@H]1CCNC1=O)C(=O)C(=O)NC1CC1` [Compound A194] here?
Answer: Its IC50 is 0.005 µM.

Question: For `CCCC[C@H](NC(=O)O[C@@H](c1ccccc1)C(F)(F)c1cccc(Cl)c1)C(=O)N[C@@H](C[C@@H]1CCCNC1=O)C(=O)C(=O)NC1CC1` [Compound A195], which IC50 is on record?
Answer: Its IC50 is 0.211 µM.

Question: Which IC50 does the source give for `CC(C)C[C@H](NC(=O)OC(c1ccccc1)C(C)(C)c1cccc(C(F)(F)F)c1)C(=O)N[C@@H](C[C@@H]1CCNC1=O)C(=O)C(=O)NC1CC1` (stereo partly shown) [Compound A197] here?
Answer: Its IC50 is 0.027 µM.

Question: Which IC50 does the source give for `CC(C)C[C@H](NC(=O)OC(C(C)C)C(F)(F)c1cccc(C2CC2)c1)C(=O)N[C@H](C=O)C[C@@H]1CCNC1=O` (stereo partly shown) [Compound A198] here?
Answer: Its IC50 is 0.006 µM.

Question: How did the IC50 turn out when `CCCC[C@H](NC(=O)O[C@@H](c1ccc(F)cc1)C(F)(F)c1cccc(Cl)c1)C(=O)N[C@@H](C[C@@H]1CCNC1=O)C(=O)C(=O)NC1CC1` [Compound A199] was run?
Answer: The IC50 was 0.494 µM.

Question: Which IC50 does the source give for `CCCC[C@H](NC(=O)O[C@H](c1ccc(F)cc1)C(F)(F)c1cccc(Cl)c1)C(=O)N[C@@H](C[C@@H]1CCNC1=O)C(=O)C(=O)NC1CC1` [Compound A200] here?
Answer: Its IC50 is 0.0004 µM.

Question: With `CCCC[C@H](NC(=O)O[C@H](c1cccc(F)c1)C(F)(F)c1cccc(F)c1)C(=O)N[C@H](C=O)C[C@@H]1CCNC1=O` [Compound A201] as the compound, how does the IC50 read?
Answer: The IC50 was 0.001 µM.

Question: With `CC(C)C[C@H](NC(=O)O[C@@H](c1ccc(F)cc1)C(C)(C)c1cccc(Cl)c1)C(=O)N[C@H](C=O)C[C@@H]1CCNC1=O` [Compound A202] as the compound, how does the IC50 read?
Answer: Its IC50 is 0.021 µM.

Question: Which IC50 does the source give for `NC(=O)C(=O)[C@H](C[C@@H]1CCNC1=O)NC(=O)[C@H](CC1CCCCC1)NC(=O)OC(c1ccccc1)C(F)(F)c1cccc(Cl)c1` (stereo partly shown) [Compound A204] here?
Answer: The IC50 was 0.001 µM.

Question: For `O=C[C@H](C[C@@H]1CCNC1=O)NC(=O)[C@H](CC1CCC1)NC(=O)O[C@H](c1ccccc1)C(F)(F)c1cccc(Cl)c1` [Compound A205], which IC50 is on record?
Answer: Its IC50 is 0.0002 µM.

Question: With `CCNC(=O)C(=O)[C@H](C[C@H]1CCNC1=O)NC(=O)[C@H](CC1CCCCC1)NC(=O)OC(c1ccccc1)C(F)(F)c1cccc(Cl)c1` (stereo partly shown) [Compound A207] as the compound, how does the IC50 read?
Answer: Its IC50 is 0.764 µM.

Question: Which IC50 does the source give for `CCC[C@H](NC(=O)O[C@H](c1ccccc1)C(F)(F)c1cccc(Cl)c1)C(=O)N[C@H](C=O)C[C@@H]1CCNC1=O` [Compound A208] here?
Answer: The IC50 was 0.004 µM.

Question: How did the IC50 turn out when `CCC(=O)OC([C@H](C[C@@H]1CCNC1=O)NC(=O)[C@H](CC1CCCCC1)NC(=O)O[C@@H](c1ccccc1)C(F)(F)c1cccc(Cl)c1)S(=O)(=O)O` (stereo partly shown) [Compound A211] was run?
Answer: Its IC50 is 0.504 µM.

Question: Which IC50 does the source give for `CCC(=O)OC([C@H](C[C@@H]1CCNC1=O)NC(=O)[C@H](CC1CCCCC1)NC(=O)O[C@H](c1ccccc1)C(F)(F)c1cccc(Cl)c1)S(=O)(=O)O` (stereo partly shown) [Compound A212] here?
Answer: The IC50 was 4.15 µM.

Question: For `CCCC[C@H](NC(=O)O[C@@H](c1ccccc1)C(F)(F)c1cccc(Cl)c1)C(=O)N[C@@H](C[C@@H]1CCNC1=O)C(OC(=O)CC)S(=O)(=O)O` (stereo partly shown) [Compound A213], which IC50 is on record?
Answer: The IC50 was 5.02 µM.

Question: How did the IC50 turn out when `CCCC[C@H](NC(=O)O[C@H](c1ccccc1)C(F)(F)c1cccc(Cl)c1)C(=O)N[C@@H](C[C@@H]1CCNC1=O)C(OC(=O)CC)S(=O)(=O)O` (stereo partly shown) [Compound A214] was run?
Answer: Its IC50 is 1.86 µM.

Question: `CCCC[C@H](NC(=O)O[C@@H](c1ccccc1)C(C)(C)c1cccc(F)c1)C(=O)N[C@@H](C[C@@H]1CCNC1=O)C(=O)C(=O)NCC` [Compound A215] was tested. Which IC50 did it give?
Answer: Its IC50 is 1.01 µM.

Question: With `CCCC[C@H](NC(=O)O[C@H](c1ccccc1)C(C)(C)c1cccc(F)c1)C(=O)N[C@@H](C[C@@H]1CCNC1=O)C(=O)C(=O)NCC` [Compound A216] as the compound, how does the IC50 read?
Answer: The IC50 was 0.006 µM.

Question: For `CCCC[C@H](NC(=O)O[C@@H](c1cccc(F)c1)C(F)(F)c1cccc(F)c1)C(=O)N[C@H](C=O)C[C@@H]1CCNC1=O` [Compound A217], which IC50 is on record?
Answer: The IC50 was 0.01 µM.

Question: How did the IC50 turn out when `CCCCC[C@H](NC(=O)O[C@H](c1ccccc1)C(F)(F)c1cccc(Cl)c1)C(=O)N[C@H](C=O)C[C@@H]1CCNC1=O` [Compound A218] was run?
Answer: Its IC50 is 0.001 µM.

Question: For `O=C[C@H](C[C@@H]1CCNC1=O)NC(=O)[C@H](CCCF)NC(=O)OC(c1ccccc1)C(F)(F)c1cccc(Cl)c1` (stereo partly shown) [Compound A219], which IC50 is on record?
Answer: Its IC50 is 0.16 µM.

Question: For `CCNC(=O)C(=O)[C@H](C[C@@H]1CCNC1=O)NC(=O)[C@H](CC1CCCC1)NC(=O)O[C@@H](c1ccccc1)C(F)(F)c1cccc(Cl)c1` [Compound A220, (S)-2-(3-chlorophenyl)-2,2-difluoro-1-phenylethyl ((S)-3-cyclopentyl-1-(((S)-4-(ethylamino)-3,4-dioxo-1-((S)-2-oxopyrrolidin-3-yl)butan-2-yl)amino)-1-oxopropan-2-yl)carbamate], which IC50 is on record?
Answer: The IC50 was 0.183 µM.

Question: How did the IC50 turn out when `CC(C)C[C@H](NC(=O)OC(C(C)C)C(F)(F)c1cccc(-c2ccccc2)c1)C(=O)N[C@H](C=O)C[C@@H]1CCNC1=O` (stereo partly drawn) [Compound A222, 1-([1,1′-Biphenyl]-3-yl)-1,1-difluoro-3-methylbutan-2-yl ((S)-4-methyl-1-oxo-1-(((S)-1-oxo-3-((S)-2-oxopyrrolidin-3-yl)propan-2-yl)amino)pentan-2-yl)carbamate] was run?
Answer: The IC50 was 0.003 µM.

Question: `CC(C)C[C@H](NC(=O)O[C@@H](c1ccccc1)C(F)(F)c1cccc(F)c1)C(=O)N[C@H](C=O)C[C@@H]1CCNC1=O` [Compound A223, (S)-2,2-difluoro-2-(3-fluorophenyl)-1-phenylethyl ((S)-4-methyl-1-oxo-1-(((S)-1-oxo-3-((S)-2-oxopyrrolidin-3-yl)propan-2-yl)amino)pentan-2-yl)carbamate] was tested. Which IC50 did it give?
Answer: Its IC50 is 0.007 µM.

Question: Which IC50 does the source give for `CCCC[C@H](NC(=O)OC(c1ccccc1)C(F)(F)c1cccc(Cl)c1)C(=O)N[C@@H](C[C@@H]1CCNC1=O)C(=O)C(N)=O` (stereo partly drawn) [Compound A224, 2-(3-chlorophenyl)-2,2-difluoro-1-phenylethyl ((S)-1-(((S)-4-amino-3,4-dioxo-1-((S)-2-oxopyrolidin-3-yl)butan-2-yl)amino)-1-oxohexan-2-yl) carbamate] here?
Answer: Its IC50 is 0.0001 µM.

Question: How did the IC50 turn out when `CC(C)C[C@H](NC(=O)O[C@@H](C(C)C)C(F)(F)c1cccc(-c2ccccc2)c1)C(=O)N[C@@H](C[C@@H]1CCNC1=O)C(=O)C(=O)NC1CC1` [Compound A226, 1-([1,1′-biphenyl]-3-yl)-1,1-difluoro-3-methylbutan-2-yl ((S)-1-(((S)-4-(cyclopropylamino)-3,4-dioxo-1-((S)-2-oxopyrrolidin-3-yl)butan-2-yl)amino)-4-methyl-1-oxopentan-2-yl)carbamate] was run?
Answer: Its IC50 is 0.062 µM.

Question: Which IC50 does the source give for `O=C(N[C@@H](CCC(F)F)C(=O)N[C@@H](C[C@@H]1CCNC1=O)C(=O)C(=O)NC1CC1)O[C@@H](c1ccccc1)C(F)(F)c1cccc(Cl)c1` [Compound A227, (S)-2-(3-chlorophenyl)-2,2-difluoro-1-phenylethyl ((S)-1-(((S)-4-(cyclopropylamino)-3,4-dioxo-1-((S)-2-oxopyrrolidin-3-yl)butan-2-yl)amino)-5,5-difluoro-1-oxopentan-2-yl)carbamate] here?
Answer: Its IC50 is 0.412 µM.

Question: How did the IC50 turn out when `CCC(=O)OC([C@H](C[C@@H]1CCNC1=O)NC(=O)[C@H](CC1CCCCC1)NC(=O)O[C@@H](c1ccccc1)C(F)(F)c1cccc(Cl)c1)S(=O)(=O)O` (stereo partly drawn) [Compound A229, sodium (2S,6S,9S)-1-(3-chlorophenyl)-6-(cyclohexylmethyl)-1,1-difluoro-4,7,12-trioxo-9-(((S)-2-oxopyrrolidin-3-yl)methyl)-2-phenyl-3,11-dioxa-5,8-diazatetradecane-10-sulfonate] was run?
Answer: Its IC50 is ≥ 20 µM.

Question: How did the IC50 turn out when `O=C(N[C@@H](CC(F)F)C(=O)N[C@@H](C[C@@H]1CCNC1=O)C(=O)C(=O)NC1CC1)OC(c1ccccc1)C(F)(F)c1cccc(Cl)c1` (stereo partly drawn) [Compound A230, 2-(3-chlorophenyl)-2,2-difluoro-1-phenylethyl ((S)-1-(((S)-4-(cyclopropylamino)-3,4-dioxo-1-((S)-2-oxopyrrolidin-3-yl)butan-2-yl)amino)-4,4-difluoro-1-oxobutan-2-yl)carbamate] was run?
Answer: The IC50 was 0.007 µM.

Question: With `CCCC[C@H](NC(=O)OC(c1ccccc1)C(F)(F)c1cccc(Cl)c1)C(=O)N[C@@H](C[C@@H]1CCNC1=O)C(=O)C(=O)NCCO` (stereo partly drawn) [Compound A231, 2-(3-chlorophenyl)-2,2-difluoro-1-phenylethyl ((S)-1-(((S)-4-((2-hydroxyethyl)amino)-3,4-dioxo-1-((S)-2-oxopyrrolidin-3-yl)butan-2-yl)amino)-1-oxohexan-2-yl)carbamate] as the compound, how does the IC50 read?
Answer: The IC50 was 0.089 µM.

Question: For `O=C[C@H](C[C@@H]1CCNC1=O)NC(=O)[C@H](CC(F)F)NC(=O)OC(c1ccccc1)C(F)(F)c1cccc(Cl)c1` (stereo partly drawn) [Compound A232, 2-(3-chlorophenyl)-2,2-difluoro-1-phenylethyl ((S)-4,4-difluoro-1-oxo-1-(((S)-1-oxo-3-((S)-2-oxopyrrolidin-3-yl)propan-2-yl)amino)butan-2-yl)carbamate], which IC50 is on record?
Answer: Its IC50 is 0.022 µM.

Question: `O=C(N[C@@H](CC1CCCCC1)C(=O)N[C@@H](C[C@@H]1CCNC1=O)C(O)S(=O)(=O)O)O[C@H](c1ccccc1)C(F)(F)c1cccc(F)c1` (stereo partly drawn) [Compound A233, sodium (2S)-2-((S)-3-cyclohexyl-2-((((R)-2,2-difluoro-2-(3-fluorophenyl)-1-phenylethoxy)carbonyl)amino)propanamido)-1-hydroxy-3-((S)-2-oxopyrrolidin-3-yl)propane-1-sulfonate] was tested. Which IC50 did it give?
Answer: Its IC50 is 0.025 µM.

Question: With `CCC(C)C[C@H](NC(=O)OC(c1ccccc1)C(F)(F)c1cccc(Cl)c1)C(=O)N[C@H](C=O)C[C@@H]1CCNC1=O` (stereo partly shown) [Compound A234] as the compound, how does the IC50 read?
Answer: Its IC50 is 0.001 µM.

Question: `O=C(N[C@@H](CC1CCCCC1)C(=O)N[C@@H](C[C@@H]1CCNC1=O)C(=O)C(=O)NC1CC1)O[C@@H](c1ccccc1)C(F)(F)c1cccc(F)c1` [Compound A236] was tested. Which IC50 did it give?
Answer: Its IC50 is 0.817 µM.

Question: `O=C(N[C@@H](CC1CCCCC1)C(=O)N[C@@H](C[C@@H]1CCNC1=O)C(=O)C(=O)NC1CC1)O[C@H](c1ccccc1)C(F)(F)c1cccc(F)c1` [Compound A237] was tested. Which IC50 did it give?
Answer: The IC50 was 0.003 µM.
